Results on three substances are retold here after patent US20210283215A1, “BACTERIOTHERAPY AGAINST PROPRIONIBACTERIUM ACNES FOR THE TREATMENT OF ACNE” (The Regents of the University of California, priority 2018, published 2021).

The experiment deals with C. acnes C2. In words: Inhibition of C. acnes C2 growth, 72 h culture. To be noted: C. acnes C2, 72 h culture. It is filed as cell-based.

As for “PSMβ4: phenol soluble modulin beta peptide of S. capitis E12, SEQ ID NO: 9443, individually synthesized (MTKLAEAIANAVKAGQDQDWAKLGTSIVGIAENGISLLGKVFGF; listed as Staphylococcus capitis)”, the “concentration inhibiting growth of C. acnes” value is 125 µg/mL.
Turning to “PSMβ6: phenol soluble modulin beta peptide of S. capitis E12, SEQ ID NO: 9447, individually synthesized (MEKLFDAIRNTVDAGINQDWTKLGTSIVDIVDNGVKVISKFIGA; listed as Staphylococcus capitis)”, the “concentration inhibiting growth of C. acnes” value was found to be 62 µg/mL.
For “PSMβ1: phenol soluble modulin beta peptide of S. capitis E12, SEQ ID NO: 9437, individually synthesized (MTKLAEAIANTVKAGQDHDWAKLGTSIVGIAENGIGLLGKVFGF; listed as Staphylococcus capitis)”, the “concentration inhibiting growth of C. acnes” value came out at 62 µg/mL.
